Measurements published in US20040018482A1, “Loading and unloading of permeating protectants for cell, tissue, and organ cryopreservation by vitrification” (priority 1997, published 2004).

Key:
isolated rat heart = assay: Cardiac function of isolated rat heart (working mode reperfusion) after DMSO loading and unloading
Method: Preparation of the Cardiac Explant: The animal experiments were conducted in accordance with the “Principles of Laboratory Animal Care” formulated by the Institute of Laboratory Animal Resources and the “Guide for the Care and Use of Laboratory Animals” prepared by the Institute of Laboratory Animal Resources and published by the National Institute of Health (NIH Publication No. 86-23, 1985). Male Sprague-Dawley rats (300-350g) were anesthetized with sodium pentobarbital (65 mg/kg, ip) and anticoagulated with heparin (250u, iv). The heart was excised and immediately immersed in ice-cold Krebs-Henseleit buffer (KHB), which contained (in mM): 118 NaCl, 11 glucose, 25 NaHCO3, 4.7 KCl, 1.2 MgSO4, 1.2 KH2PO4, 0.5 Na-EDTA, and 2.5 CaCl2. The aorta was cannulated and the heart retrograde perfused at 70 mm Hg for 9 min. with 36.5° C. KHB equilibrated with 95% 02/[…]. The perfusion was continued for 2 min. at 60 mm Hg with CP-11E saturated with 100% 02. The composition of CP-11E (in mM) was: 125 NaCl, 7 glucose, 1.2 KH2PO4, 10 mannitol, 15 MgSO4, 14 KCl, 10 Hepes, 0.02 EDTA, 0.28 CaCl2 , pH 7.5.
After CP-11E flush, the arrested heart was transferred to a perfusion apparatus (FIG. 1). Both CP-11EB and CP-11E+DMSO+mannitol were bubbled constantly with 100% 02. Perfusate was delivered via an aortic cannula by a peristaltic pump at a flow rate of 1 ml/min. Two experiments were performed at room temperature.
Experiment 0: The heart was gradually loaded with 30 wt % DMSO and immediately unloaded. No co-solutes were used. […]
Assessment of cardiac function: Cardiac function was assessed by working mode reperfusion with KHB at 11 mm Hg preload and 70 mm Hg after load. Heart rate (HR, beats/min), aortic and coronary flow (AF and CF, ml/min.), cardiac output (CO=AF+CF, ml/min.), systolic and diastolic aortic pressure (mm Hg) were recorded. Coronary vascular resistance and work were calculated according to Neely et al., 1967 (Neely et al. “Effect of Pressure Development on Oxygen Consumption by the Isolated Rat Heart ”. Am. J. Physiology, 212:804-12, 1967).

erythrocytes = assay: Hemolysis of rat erythrocytes after step loading and unloading with ethylene glycol vitrification solution; type: cell-based; settings: added to 60 wt % EG+0.9 wt % NaCl vitrification solution; 60 min equilibration and two unloading steps; room temperature, pH 7.0; FIG. 1
Method: Blood was sampled from external jugular vein of rats after heart extrusion described in Example 1.
Step 1: 100 μl of blood were mixed with 100 μl of 30 wt % EG+0.9 wt % NaCl. Equilibration time 10 min.
Step 2: 1000 μl of vitrification solution vitrification solution containing mixture of 60 wt % EG+0.9 wt % NaCl with different amounts of glutamic acid monosodium Salt (GA) per gram of Vitrification solution were slowly (during 3-5 min.) added to the mixture obtained after Step 1.
After that the blood cells were equilibrated in Vitrification solution during 60 min. before unloading.
Step 1: After 60 min. equilibration in vitrification solution erythrocytes were centrifuged down (5 min. at 2000 g), 0.5 ml of supernatant was removed from each sample, and 0.5 ml of 3 wt % GA+0.9 wt % NaCl were added to each sample. […]
Concentration of free hemoglobin in supernatants collected from the samples after equilibration in Vitrification solution, first and second step of unloading was used to characterize the erythrocyte damage (hemolysis). The concentration of free hemoglobin was measured using 390 Turner spectrophotometer (at 550 nm wavelength) after adding 0.5 ml of supernatant to 3 ml of water. The hemolysis was measured as a ratio of hemoglobin concentration in the supernatants to the hemoglobin concentration in the mixture of 41.7 μl of blood with 3.5 ml water that was taken as 100% hemolysis. […]

[1] = test system: Drosophila melanogaster embryos; settings: co-solute in ethylene glycol vitrification solution; cited from earlier work
[2] = Experiment 0: loaded to 30 wt % DMSO in 30 min, unloaded 60 min, no co-solutes (mannitol not present)

## C[S+](C)[O-] [DMSO, dimethylsulfoxide]
Isolated rat heart; [2]
  recovery in function after unloading: no recovery in function
  state of the heart (contracture): developed contracture

## N[C@@H](CCC(=O)O)C(=O)[O-].[Na+] [GA, glutamic acid monosodium Salt]
erythrocytes
  effect of co-solute on erythrocyte damage (hemolysis): protects erythrocytes from damage

## N[C@@H](CCC(=O)O)C(=O)O [glutamic acid]
[1]
  effect on ethylene glycol permeation into embryos: significantly diminished ethylene glycol permeation

## NCC(=O)O [glycine]
[1]
  effect on ethylene glycol permeation into embryos: significantly diminished ethylene glycol permeation

## OC[C@@H](O)[C@@H](O)[C@H](O)[C@H](O)CO [mannitol]
Isolated rat heart; mannitol present during loading, perfusion and unloading (Experiments 1 and 2)
  effect of presence of mannitol on damage to the heart caused by high concentration of DMSO and changes in osmotic pressure: prevented damage to the heart

## OC[C@@H](O)[C@@H](O)[C@H](O)[C@@H](O)CO [sorbitol]
[1]
  effect on ethylene glycol permeation into embryos: significantly diminished ethylene glycol permeation
